Entries after “also recorded” stand apart in the source; their conditions may differ.
Biological target: T1, mammalian CaSR (Homo sapiens, UniProt P41180)
T1 construct: expressed in transfected cells; host or cells: HEK cells stably expressing the mammalian CaSR
T1 sequence (P41180 20-1078): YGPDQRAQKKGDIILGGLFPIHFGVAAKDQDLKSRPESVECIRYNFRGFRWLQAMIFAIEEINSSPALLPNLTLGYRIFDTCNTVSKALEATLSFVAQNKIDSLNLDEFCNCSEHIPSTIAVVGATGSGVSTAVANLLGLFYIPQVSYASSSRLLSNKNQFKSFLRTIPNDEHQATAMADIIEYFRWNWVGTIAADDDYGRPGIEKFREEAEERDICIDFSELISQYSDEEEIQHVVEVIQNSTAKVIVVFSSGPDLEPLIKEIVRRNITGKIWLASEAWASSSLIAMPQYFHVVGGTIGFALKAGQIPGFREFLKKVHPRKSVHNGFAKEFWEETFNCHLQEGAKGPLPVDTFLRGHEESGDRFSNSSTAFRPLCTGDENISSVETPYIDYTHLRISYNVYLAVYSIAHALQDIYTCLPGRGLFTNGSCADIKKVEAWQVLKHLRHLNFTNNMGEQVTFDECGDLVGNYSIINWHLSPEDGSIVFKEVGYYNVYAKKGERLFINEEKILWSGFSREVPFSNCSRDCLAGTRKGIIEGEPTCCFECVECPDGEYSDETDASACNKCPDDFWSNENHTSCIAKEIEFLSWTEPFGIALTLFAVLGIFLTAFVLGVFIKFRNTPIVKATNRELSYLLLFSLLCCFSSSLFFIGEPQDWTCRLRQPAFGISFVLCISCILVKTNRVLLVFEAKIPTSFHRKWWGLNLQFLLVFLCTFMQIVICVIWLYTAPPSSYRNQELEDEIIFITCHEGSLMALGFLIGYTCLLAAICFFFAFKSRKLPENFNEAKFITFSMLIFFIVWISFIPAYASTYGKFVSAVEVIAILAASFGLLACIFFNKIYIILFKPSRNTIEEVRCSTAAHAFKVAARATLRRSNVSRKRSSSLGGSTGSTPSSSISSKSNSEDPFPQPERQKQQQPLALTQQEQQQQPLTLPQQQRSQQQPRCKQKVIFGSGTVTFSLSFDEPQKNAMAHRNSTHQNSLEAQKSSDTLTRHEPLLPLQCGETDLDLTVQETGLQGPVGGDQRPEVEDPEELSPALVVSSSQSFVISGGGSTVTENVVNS
Assay: FURA2 ratio imaging fluorimetry of HEK cells stably expressing mammalian CaSR
Type: cell-based
Source text: All methods and equipment utilized to perform experiments on HEK cells have been reported previously (Gama, L. and Breitwieser, G. E. 1998. A carboxyl-terminal domain controls the cooperativity for extracellular Ca2+ activation of the human calcium sensing receptor. A study with receptor-green fluorescent protein fusions. J. Biol. Chem. 273, 29712-29718; Bai, M., Quinn, S., Trivedi, S., Kifor, 0., Pearce, S. H., Pollak, M. R., Krapcho, K., Hebert, S. C. and Brown, E. M. 1996. Expression and characterization of inactivating and activating mutations in the human Ca2+o-sensing receptor. J. Biol. Chem. 271, 19537-19544). Untransfected HEK cells or, alternatively, cells transfected and expressing CaSR protein were cultured in Dulbecco's Modified Eagle Medium containing 10% fetal bovine serum and 1% penicillin-streptomycin in 75 cm^2 flasks until they reached confluence. Media was removed from the flasks and cells were loaded by exposure to Loading Buffer (125 mM NaCl, 4 mM KCl, 1.0 mMCaCl2, 1.0 mM MgCl2, 1 mM NaH2PO4, 20 mM HEPES, 1 gm/liter bovine serum albumin, and 1 gm/l glucose, pH ˜7.4, osmolality ˜285) containing 4.1 micromolar FURA2-AM (Molecular Probes Inc. Eugene, Oreg.) for 2 hr. Cells were then scraped from the surface of the flask using a standard cell scraper (Costar 3010, Corning Inc.). Cells were then pelleted from the suspension by low speed centrifugation to remove loading buffer and rinsed twice to remove extracellular FURA2 dye by two sequential suspensions and pelleting steps using low speed centrifugation. Immediately prior to the start of the experiment, cells were resuspended in various experimental buffers for analyses as described below. The Standard Experimental Buffer used for many studies was composed of: 125 mM NaCl, 4 mM KCl, 0.5 mMCaCl2, 0.5 mM MgCl2, 20 mM HEPES, 1 g/l glucose, pH ˜7.4, osmolality ˜285. All other buffers were variations on this basic composition where specific components within the Standard Experimental Buffer were varied while the remaining components were held constant.
Cell suspensions consisting of a total volume of 3 ml were analyzed in a PTI fluorimeter (PTI Model 814 Photomultiplier Detection System equipped with SC-500 Shutter Controller and PTI Driver and Analysis Software) within approximately 20 min after exposure to experimental buffers. Data was acquired using standard ratio image analysis as described previously using a data acquisition rate of 1.3 sec. for 500 or 1000 second intervals.
In selected experiments, the detergent Triton X-100 was added in order to lyse the cells and quantify differences in FURA2 ratio fluorescence. Triton X-100 was added to the cells to obtain a maximal fluorescence signal from the FURA2 for purposes of quantification.
Experiments on HEK cells were performed generally as described in Example 6 herein. […] Subsequent addition of Ca2+ to a final concentration of 5 mM produced an additional response (see FIG. 26A). No response was observed upon addition of 0.025% Mintrex Zn after the addition of experimental buffer (EB) (see FIG. 26B). […] In addition, the magnitude of the CaSR response to 5 mM Ca2+ was diminished by previous addition of Mintrex Zn.
For mammalian CaSR experiments, two individual aliquots from a single pool of HEK cells that stably express the recombinant mammalian CaSR protein were used for ratio imaging fluorimetry assays of CaSR activation generally as described in Example 6 herein. Addition of Ca++ to a final concentration of 2.5 mM produced a CaSR response that was also followed by responses after subsequent additions of 0.025% Zn proteinate followed by Ca++ to a final concentration of 7.5 mM (FIG. 29B). […] There was also a response to a subsequent dose of Ca++ to a final concentration of 7.5 mM (FIG. 29B). In both tracings, the detergent Triton X-100 was added as a final step to lyse the cells.
Experiments on HEK cells were performed generally as described in Example 6 herein. […]

COc1cccc([C@@H](C)NCCCc2ccccc2)c1 [MC0100]
effect of prior modulator on CaSR response to 0.025% Zn Proteinate (1 micromolar MC 0100): increased the response
effect of prior modulator on CaSR response to 0.025% Mintrex Zn (1 micromolar MC0100 added before Mintrex Zn): responded to 0.025% Mintrex Zn only after the addition of 1 micromolar MC0100
CaSR response to the modulator itself (MC0100 at final 1 micromolar): very small CaSR response; also recorded: did not itself produce a large response
CaSR response to stepwise additions (after addition of 2.5 mM Ca++ (FIG. 37)): increased responses
effect on Mintrex Zn-induced reduction of CaSR response to 5 mM Ca2+ (previous addition of 1 micromolar MC0100): partially restored
